Test results taken from the supplement of paper PMC10307832.

Columns and labels:
Test in all cases: relative viability (nuclei count vs DMSO), 5 days (fraction); higher = more cells survive
[1] = compound: C1/C(=C\C2=CC=CS2)/C(=O)/C(=C/C3=CC=CS3)/C1 + Nc1nc2[nH]cc(CCc3ccc(C(=O)N[C@@H](CCC(=O)O)C(=O)O)cc3)c2c(=O)[nH]1 [Pemetrexed] (partner 0.2 µM)
Method in brief: (§1)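 Cells from lung cancer lines were seeded into 1536-well plates and, one day later, dosed by pin tool. Treatments were either a single drug or a fixed dose of an anchor drug with five library-drug doses (not always all listed) in √10 steps. After 5 days, nuclei were stained in a one-step fixation (final 0.05% Triton X-100, 1% formaldehyde, 1 ug/ml Hoechst) and counted on 4× images, and relative viability is the treated-to-vehicle nuclei ratio, as the median of duplicate plates.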

[2] = compound: C1=CC(=CC=C1C2=CC(=C(S2)NC(=O)N)C(=O)N)F [TPCA-1] + COc1cc2c(Oc3ccc(NC(=O)C4(C(=O)Nc5ccc(F)cc5)CC4)cc3F)ccnc2cc1OCCCN1CCOCC1 [Foretinib] (partner 0.25 µM)
Method in brief: as §1

[3] = compound: C1=CC(=CC=C1C2=CC(=C(S2)NC(=O)N)C(=O)N)F [TPCA-1] + CS(=O)(=O)N1CCN(Cc2cc3nc(-c4cccc5[nH]ncc45)nc(N4CCOCC4)c3s2)CC1 [Pictilisib] (partner 1 µM)
Method in brief: as §1

[4] = compound: C[C@]12O[C@H](C[C@]1(O)CO)n1c3ccccc3c3c4c(c5c6ccccc6n2c5c31)CNC4=O [Lestaurtinib] + Cc1nc(NC(=O)N2CCC[C@H]2C(N)=O)sc1-c1ccnc(C(C)(C)C(F)(F)F)c1 [Alpelisib] (partner 2 µM)
Method in brief: as §1

LOU-NH91
relative viability ([1]; first compound 0.2 µM): 0.331 | relative viability ([1]; first compound 0.6325 µM): 0.401 | relative viability ([1]; first compound 2 µM): 0.316 | relative viability ([1]; first compound 6.325 µM): 0.37 | relative viability ([1]; first compound 20 µM): 0.375 | relative viability ([2]; first compound 0.04 µM): 0.984 | relative viability ([2]; first compound 0.1265 µM): 0.887 | relative viability ([2]; first compound 0.4 µM): 0.971 | relative viability ([2]; first compound 1.265 µM): 0.97 | relative viability ([2]; first compound 4 µM): 0.803 | relative viability ([3]; first compound 0.04 µM): 0.527 | relative viability ([3]; first compound 0.1265 µM): 0.438 | relative viability ([3]; first compound 0.4 µM): 0.563 | relative viability ([3]; first compound 1.265 µM): 0.507 | relative viability ([3]; first compound 4 µM): 0.469 | relative viability ([4]; first compound 0.005 µM): 0.757 | relative viability ([4]; first compound 0.01581 µM): 0.666 | relative viability ([4]; first compound 0.05 µM): 0.623 | relative viability ([4]; first compound 0.1581 µM): 0.472 | relative viability ([4]; first compound 0.5 µM): 0.416

LU99A
relative viability ([1]; first compound 0.2 µM): 0.217 | relative viability ([1]; first compound 0.6325 µM): 0.185 | relative viability ([1]; first compound 2 µM): 0.172 | relative viability ([1]; first compound 6.325 µM): 0.17 | relative viability ([1]; first compound 20 µM): 0.164 | relative viability ([2]; first compound 0.04 µM): 0.917 | relative viability ([2]; first compound 0.1265 µM): 0.745 | relative viability ([2]; first compound 0.4 µM): 0.78 | relative viability ([2]; first compound 1.265 µM): 0.636 | relative viability ([2]; first compound 4 µM): 0.436 | relative viability ([3]; first compound 0.04 µM): 0.299 | relative viability ([3]; first compound 0.1265 µM): 0.29 | relative viability ([3]; first compound 0.4 µM): 0.317 | relative viability ([3]; first compound 1.265 µM): 0.303 | relative viability ([3]; first compound 4 µM): 0.25 | relative viability ([4]; first compound 0.005 µM): 0.413 | relative viability ([4]; first compound 0.01581 µM): 0.488 | relative viability ([4]; first compound 0.05 µM): 0.233 | relative viability ([4]; first compound 0.1581 µM): 0.283 | relative viability ([4]; first compound 0.5 µM): 0.192

LXF-289
relative viability ([1]; first compound 0.2 µM): 0.911 | relative viability ([1]; first compound 0.6325 µM): 0.839 | relative viability ([1]; first compound 2 µM): 0.889 | relative viability ([1]; first compound 6.325 µM): 0.858 | relative viability ([1]; first compound 20 µM): 0.852 | relative viability ([2]; first compound 0.04 µM): 0.972 | relative viability ([2]; first compound 0.1265 µM): 0.966 | relative viability ([2]; first compound 0.4 µM): 0.89 | relative viability ([2]; first compound 1.265 µM): 0.981 | relative viability ([2]; first compound 4 µM): 0.692 | relative viability ([3]; first compound 0.04 µM): 0.836 | relative viability ([3]; first compound 0.1265 µM): 0.698 | relative viability ([3]; first compound 0.4 µM): 0.797 | relative viability ([3]; first compound 1.265 µM): 0.735 | relative viability ([3]; first compound 4 µM): 0.499 | relative viability ([4]; first compound 0.005 µM): 1.05 | relative viability ([4]; first compound 0.01581 µM): 1.09 | relative viability ([4]; first compound 0.05 µM): 0.695 | relative viability ([4]; first compound 0.1581 µM): 0.91 | relative viability ([4]; first compound 0.5 µM): 0.178

NCI-H23
relative viability ([1]; first compound 0.2 µM): 0.781 | relative viability ([1]; first compound 0.6325 µM): 0.641 | relative viability ([1]; first compound 2 µM): 0.859 | relative viability ([1]; first compound 6.325 µM): 0.453 | relative viability ([1]; first compound 20 µM): 0.71 | relative viability ([2]; first compound 0.04 µM): 0.947 | relative viability ([2]; first compound 0.1265 µM): 0.934 | relative viability ([2]; first compound 0.4 µM): 0.935 | relative viability ([2]; first compound 1.265 µM): 1.08 | relative viability ([2]; first compound 4 µM): 0.867 | relative viability ([3]; first compound 0.04 µM): 0.529 | relative viability ([3]; first compound 0.1265 µM): 0.342 | relative viability ([3]; first compound 0.4 µM): 0.519 | relative viability ([3]; first compound 1.265 µM): 0.5 | relative viability ([3]; first compound 4 µM): 0.184 | relative viability ([4]; first compound 0.005 µM): 0.666 | relative viability ([4]; first compound 0.01581 µM): 0.552 | relative viability ([4]; first compound 0.05 µM): 0.571 | relative viability ([4]; first compound 0.1581 µM): 0.565 | relative viability ([4]; first compound 0.5 µM): 0.236

NCI-H322M
relative viability ([1]; first compound 0.2 µM): 0.628 | relative viability ([1]; first compound 0.6325 µM): 0.642 | relative viability ([1]; first compound 2 µM): 0.681 | relative viability ([1]; first compound 6.325 µM): 0.503 | relative viability ([1]; first compound 20 µM): 0.626 | relative viability ([2]; first compound 0.04 µM): 1.2 | relative viability ([2]; first compound 0.1265 µM): 0.973 | relative viability ([2]; first compound 0.4 µM): 1.01 | relative viability ([2]; first compound 1.265 µM): 0.998 | relative viability ([2]; first compound 4 µM): 0.633 | relative viability ([3]; first compound 0.04 µM): 0.587 | relative viability ([3]; first compound 0.1265 µM): 0.494 | relative viability ([3]; first compound 0.4 µM): 0.529 | relative viability ([3]; first compound 1.265 µM): 0.532 | relative viability ([3]; first compound 4 µM): 0.464 | relative viability ([4]; first compound 0.005 µM): 0.853 | relative viability ([4]; first compound 0.01581 µM): 0.789 | relative viability ([4]; first compound 0.05 µM): 0.508 | relative viability ([4]; first compound 0.1581 µM): 0.325 | relative viability ([4]; first compound 0.5 µM): 0.405

NCI-H358
relative viability ([1]; first compound 0.2 µM): 0.213 | relative viability ([1]; first compound 0.6325 µM): 0.207 | relative viability ([1]; first compound 2 µM): 0.171 | relative viability ([1]; first compound 6.325 µM): 0.191 | relative viability ([1]; first compound 20 µM): 0.177 | relative viability ([2]; first compound 0.04 µM): 0.811 | relative viability ([2]; first compound 0.1265 µM): 0.729 | relative viability ([2]; first compound 0.4 µM): 0.845 | relative viability ([2]; first compound 1.265 µM): 0.517 | relative viability ([2]; first compound 4 µM): 0.227 | relative viability ([3]; first compound 0.04 µM): 0.309 | relative viability ([3]; first compound 0.1265 µM): 0.272 | relative viability ([3]; first compound 0.4 µM): 0.349 | relative viability ([3]; first compound 1.265 µM): 0.335 | relative viability ([3]; first compound 4 µM): 0.236 | relative viability ([4]; first compound 0.005 µM): 0.656 | relative viability ([4]; first compound 0.01581 µM): 0.601 | relative viability ([4]; first compound 0.05 µM): 0.343 | relative viability ([4]; first compound 0.1581 µM): 0.266 | relative viability ([4]; first compound 0.5 µM): 0.202

NCI-H441
relative viability ([1]; first compound 0.2 µM): 0.273 | relative viability ([1]; first compound 0.6325 µM): 0.261 | relative viability ([1]; first compound 2 µM): 0.264 | relative viability ([1]; first compound 6.325 µM): 0.27 | relative viability ([1]; first compound 20 µM): 0.264 | relative viability ([2]; first compound 0.04 µM): 0.487 | relative viability ([2]; first compound 0.1265 µM): 0.856 | relative viability ([2]; first compound 0.4 µM): 0.841 | relative viability ([2]; first compound 1.265 µM): 0.834 | relative viability ([2]; first compound 4 µM): 0.668 | relative viability ([3]; first compound 0.04 µM): 0.565 | relative viability ([3]; first compound 0.1265 µM): 0.377 | relative viability ([3]; first compound 0.4 µM): 0.4 | relative viability ([3]; first compound 1.265 µM): 0.216 | relative viability ([3]; first compound 4 µM): 0.195 | relative viability ([4]; first compound 0.005 µM): 0.584 | relative viability ([4]; first compound 0.01581 µM): 0.687 | relative viability ([4]; first compound 0.05 µM): 0.416 | relative viability ([4]; first compound 0.1581 µM): 0.421 | relative viability ([4]; first compound 0.5 µM): 0.289

NCI-H460
relative viability ([1]; first compound 0.2 µM): 0.0622 | relative viability ([1]; first compound 0.6325 µM): 0.0731 | relative viability ([1]; first compound 2 µM): 0.0616 | relative viability ([1]; first compound 6.325 µM): 0.0608 | relative viability ([1]; first compound 20 µM): 0.0583 | relative viability ([2]; first compound 0.04 µM): 1.05 | relative viability ([2]; first compound 0.1265 µM): 0.918 | relative viability ([2]; first compound 0.4 µM): 1.07 | relative viability ([2]; first compound 1.265 µM): 1.05 | relative viability ([2]; first compound 4 µM): 0.857 | relative viability ([3]; first compound 0.04 µM): 0.421 | relative viability ([3]; first compound 0.1265 µM): 0.246 | relative viability ([3]; first compound 0.4 µM): 0.332 | relative viability ([3]; first compound 1.265 µM): 0.339 | relative viability ([3]; first compound 4 µM): 0.216 | relative viability ([4]; first compound 0.005 µM): 0.477 | relative viability ([4]; first compound 0.01581 µM): 0.406 | relative viability ([4]; first compound 0.05 µM): 0.222 | relative viability ([4]; first compound 0.1581 µM): 0.198 | relative viability ([4]; first compound 0.5 µM): 0.0751
